The structures appear in SMILES notation. pEC50: −log10 of the molar value. Starred links: 1 amine or outer side, 2 acyl side, 3 side chain; linkers in the order of their positions; H or OH if unused. Residues, ends and D or L forms follow the SMILES beside them. Groups on a side chain read outwards from the residue. *: point of attachment. C18 diacid = O=C(O)CCCCCCCCCCCCCCCCC(=O)*; C16 diacid = O=C(O)CCCCCCCCCCCCCCC(=O)*; γGlu = O=C(O)[C@H](CCC(=O)[*:2])N[*:1]

A word on the pEC50: it is the negative decadic logarithm of the EC50, by convention in mol/L.

The target of test [1] is T1, human calcitonin receptor (hCTR) (Homo sapiens, UniProt P30988).
T1 construct: host or cells: BHK (Baby Hamster Kidney), Hollex-1 cell line
T1 sequence (P30988 25-474): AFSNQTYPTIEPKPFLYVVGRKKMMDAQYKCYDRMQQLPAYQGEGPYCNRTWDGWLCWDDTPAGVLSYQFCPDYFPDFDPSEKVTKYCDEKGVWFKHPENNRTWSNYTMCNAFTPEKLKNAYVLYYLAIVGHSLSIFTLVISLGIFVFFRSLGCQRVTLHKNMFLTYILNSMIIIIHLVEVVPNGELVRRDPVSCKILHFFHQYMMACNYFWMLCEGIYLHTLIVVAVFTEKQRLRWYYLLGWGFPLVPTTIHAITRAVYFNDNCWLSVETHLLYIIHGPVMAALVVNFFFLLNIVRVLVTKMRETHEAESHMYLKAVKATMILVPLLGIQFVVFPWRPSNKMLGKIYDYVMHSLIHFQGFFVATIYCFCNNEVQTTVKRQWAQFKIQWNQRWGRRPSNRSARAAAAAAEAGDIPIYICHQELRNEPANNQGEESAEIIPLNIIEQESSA
Nature of the test: Human calcitonin receptor (hCTR) in vitro potency assay, CRE-luciferase reporter in BHK cells. The test is classed as cell-based. The settings on record: BHK hCTR/CRE-Luc cells, 3 hours incubation, assay buffer with 1% ovalbumin; read-out: hCalcR potency, EC50. An outline of the steps: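 BHK cells stably co-expressing human calcitonin receptor and a CRE-luciferase reporter, seeded the day before, were exposed to 7-fold serial dilutions (7 concentrations, often starting near 10 nM) in DMEM/HEPES/1% ovalbumin buffer for 3 h at 37 °C. Luminescence was then read after SteadyLite Plus addition.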

Test [2] concerns the target T2, human amylin receptor (hAMYR3) (Homo sapiens, UniProt O60896+P30988).
T2 construct: host or cells: BHK (Baby Hamster Kidney), Hollex-1 cell line further transfected with RAMP3
Nature of the test: Human amylin receptor (hAMYR3) in vitro potency assay, CRE-luciferase reporter in BHK cells. Conditions: BHK hAMYR3/CRE-Luc cells, 3 hours incubation, assay buffer with 1% ovalbumin. The test is classed as cell-based. The method in brief: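 BHK cells stably expressing human calcitonin receptor (a) plus RAMP3 and a CRE-luciferase reporter, seeded overnight, then exposed to 7-point 7-fold dilutions (often from ~10 nM) in DMEM/HEPES buffer with 1% ovalbumin for 3 h at 37 °C. Luciferase luminescence read after SteadyLite Plus addition.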
In general terms: Reporter assays use an easily measured gene product as a stand-in for the process of interest.

T2 sequence (O60896 24-148, one chain of several): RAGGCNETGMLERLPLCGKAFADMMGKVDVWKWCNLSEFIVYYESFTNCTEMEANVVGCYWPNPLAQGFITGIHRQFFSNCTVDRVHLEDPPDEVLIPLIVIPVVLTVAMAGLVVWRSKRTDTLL

In the case of `CC[C@H](C)[C@H](NC(=O)[C@H](CCCCNC(=O)CC[C@H](NC(=O)CCCCCCCCCCCCCCCCC(=O)O)C(=O)O)NC(=O)CNC(=O)[C@H](Cc1ccccc1)NC(=O)[C@@H]1CCCN1C(=O)[C@H](CC(=O)O)NC(=O)[C@H](CO)NC(=O)[C@H](CO)NC(=O)[C@H](Cc1c[nH]cn1)NC(=O)[C@H](Cc1c[nH]cn1)NC(=O)[C@H](CC(C)C)NC(=O)[C@H](Cc1ccccc1)NC(=O)[C@H](CCC(=O)O)NC(=O)[C@H](C)NC(=O)[C@H](CC(C)C)NC(=O)[C@H](CCCNC(=N)N)NC(=O)[C@H](CCC(N)=O)NC(=O)[C@@H](NC(=O)[C@H](CCC(N)=O)NC(=O)[C@H](C)NC(=O)[C@@H](NC(=O)[C@H](CO)NC(=O)[C@H](CC(C)C)NC(=O)[C@H](CCC(N)=O)NC(=O)[C@H](CO)NC(=O)[C@H](C)NC(C)=O)[C@@H](C)O)[C@@H](C)O)C(=O)N1CCC[C@H]1C(=O)N[C@@H](CO)C(=O)N[C@@H](CO)C(=O)N[C@H](C(=O)N[C@@H](CC(=O)O)C(=O)N[C@H](C(=O)NCC(=O)N1CCC[C@H]1C(=O)N[C@@H](CC(=O)O)C(=O)N[C@H](C(=O)N1CCC[C@H]1C(N)=O)[C@@H](C)O)C(C)C)[C@@H](C)O` [Compound 19, N^1-acetyl,N{Epsilon-25}-[(4S)-4-carboxy-4-(17-carboxyheptadecanoylamino)butanoyl]-[Ala1,Ser2,Gln3,Leu4,Ser5,Ala7,Gln8,Glu14,His17,Asp21,Pro22,Lys25,Pro27,Asp31,Pro34,Asp35,Pro37]-human amylin] (Ac-ASQLSTAQTQRLAEFLHHSSDPFGK([γGlu-C18 diacid])IPSSTDVGPDTP-NH2), the negative logarithm of the EC50 (pEC50) was 12.00 in test [1] and 11.82 in test [2].
For `CC[C@H](C)[C@H](NC(=O)[C@@H]1CCCN1C(=O)CNC(=O)[C@H](Cc1ccccc1)NC(=O)[C@H](CC(N)=O)NC(=O)[C@H](CC(=O)O)NC(=O)[C@H](CO)NC(=O)[C@H](CO)NC(=O)[C@H](Cc1c[nH]cn1)NC(=O)[C@H](Cc1c[nH]cn1)NC(=O)[C@H](CC(C)C)NC(=O)[C@H](Cc1ccccc1)NC(=O)[C@H](CCC(=O)O)NC(=O)[C@H](C)NC(=O)[C@H](CC(C)C)NC(=O)[C@H](CCCNC(=N)N)NC(=O)[C@H](C)NC(=O)[C@@H](NC(=O)[C@H](CCC(N)=O)NC(=O)[C@H](C)NC(=O)[C@@H](NC(=O)[C@H](CO)NC(=O)[C@H](CC(C)C)NC(=O)[C@H](Cc1c[nH]cn1)NC(=O)[C@H](CO)NC(=O)[C@H](C)NC(=O)CC[C@H](NC(=O)CCCCCCCCCCCCCCC(=O)O)C(=O)O)[C@@H](C)O)[C@@H](C)O)C(=O)N[C@@H](CC(C)C)C(=O)N1CCC[C@H]1C(=O)N1CCC[C@H]1C(=O)N[C@H](C(=O)N[C@@H](CC(=O)O)C(=O)N[C@H](C(=O)NCC(=O)N[C@@H](CO)C(=O)N[C@@H](CC(N)=O)C(=O)N[C@H](C(=O)N1CCC[C@H]1C(N)=O)[C@@H](C)O)C(C)C)[C@@H](C)O` [Compound 20, N^1-[(4S)-4-carboxy-4-(15-carboxypentadecanoylamino)butanoyl]-[Ala1,Ser2,His3,Leu4,Ser5,Ala7,Gln8,Ala10,Glu14,His17,Asp21,Pro25,Pro28,Pro29,Asp31,Pro37]-human amylin] ({C16 diacid-γGlu}-ASHLSTAQTARLAEFLHHSSDNFGPILPPTDVGSNTP-NH2), in that order: 11.82 and 11.79.
Consider `CC[C@H](C)[C@H](NC(=O)[C@@H]1CCCN1C(=O)CNC(=O)[C@H](Cc1ccccc1)NC(=O)[C@H](CC(N)=O)NC(=O)[C@H](CC(=O)O)NC(=O)[C@H](CO)NC(=O)[C@H](CO)NC(=O)[C@H](Cc1c[nH]cn1)NC(=O)[C@H](Cc1c[nH]cn1)NC(=O)[C@H](CC(C)C)NC(=O)[C@H](Cc1ccccc1)NC(=O)[C@H](CCC(=O)O)NC(=O)[C@H](C)NC(=O)[C@H](CC(C)C)NC(=O)[C@H](CCCNC(=N)N)NC(=O)[C@H](CCC(N)=O)NC(=O)[C@@H](NC(=O)[C@H](CCC(N)=O)NC(=O)[C@H](C)NC(=O)[C@@H](NC(=O)[C@H](CO)NC(=O)[C@H](CC(C)C)NC(=O)[C@H](Cc1c[nH]cn1)NC(=O)[C@H](CO)NC(=O)[C@H](C)NC(=O)CC[C@H](NC(=O)CCCCCCCCCCCCCCCCC(=O)O)C(=O)O)[C@@H](C)O)[C@@H](C)O)C(=O)N[C@@H](CC(C)C)C(=O)N1CCC[C@H]1C(=O)N1CCC[C@H]1C(=O)N[C@H](C(=O)N[C@@H](CC(=O)O)C(=O)N[C@H](C(=O)NCC(=O)N[C@@H](CO)C(=O)N[C@@H](CC(N)=O)C(=O)N[C@H](C(=O)N1CCC[C@H]1C(N)=O)[C@@H](C)O)C(C)C)[C@@H](C)O` [Compound 21, N^1-[(4S)-4-carboxy-4-(17-carboxyheptadecanoylamino)butanoyl]-[Ala1,Ser2,His3,Leu4,Ser5,Ala7,Gln8,Glu14,His17,Asp21,Pro25,Pro28,Pro29,Asp31,Pro37]-human amylin] ({C18 diacid-γGlu}-ASHLSTAQTQRLAEFLHHSSDNFGPILPPTDVGSNTP-NH2), for which the negative-log EC50 (pEC50) in test [1] is 11.72; in test [2] it was 11.79.
The matching figures for `CC[C@H](C)[C@H](NC(=O)[C@@H]1CCCN1C(=O)CNC(=O)[C@H](Cc1ccccc1)NC(=O)[C@H](CC(N)=O)NC(=O)[C@H](CC(=O)O)NC(=O)[C@H](CO)NC(=O)[C@H](CO)NC(=O)[C@H](Cc1c[nH]cn1)NC(=O)[C@H](Cc1c[nH]cn1)NC(=O)[C@H](CC(C)C)NC(=O)[C@H](Cc1ccccc1)NC(=O)[C@H](CCC(=O)O)NC(=O)[C@H](C)NC(=O)[C@H](CC(C)C)NC(=O)[C@H](CCCNC(=N)N)NC(=O)[C@H](C)NC(=O)[C@@H](NC(=O)[C@H](CCC(N)=O)NC(=O)[C@H](C)NC(=O)[C@@H](NC(=O)[C@H](CO)NC(=O)[C@H](CC(C)C)NC(=O)[C@H](C)NC(=O)[C@H](CO)NC(=O)[C@H](C)NC(=O)CC[C@H](NC(=O)CCCCCCCCCCCCCCCCC(=O)O)C(=O)O)[C@@H](C)O)[C@@H](C)O)C(=O)N[C@@H](CC(C)C)C(=O)N1CCC[C@H]1C(=O)N1CCC[C@H]1C(=O)N[C@H](C(=O)N[C@@H](CC(=O)O)C(=O)N[C@H](C(=O)NCC(=O)N[C@@H](CO)C(=O)N[C@@H](CC(N)=O)C(=O)N[C@H](C(=O)N1CCC[C@H]1C(N)=O)[C@@H](C)O)C(C)C)[C@@H](C)O` [Compound 23, N^1-[(4S)-4-carboxy-4-(17-carboxyheptadecanoylamino)butanoyl]-[Ala1,Ser2,Ala3,Leu4,Ser5,Ala7,Gln8,Ala10,Glu14,His17,Asp21,Pro25,Pro28,Pro29,Asp31,Pro37]-human amylin] ({C18 diacid-γGlu}-ASALSTAQTARLAEFLHHSSDNFGPILPPTDVGSNTP-NH2): 11.80 and 11.79.
For `CC[C@H](C)[C@H](NC(=O)[C@H](C)NC(=O)CNC(=O)[C@H](Cc1ccccc1)NC(=O)[C@@H]1CCCN1C(=O)[C@H](CC(=O)O)NC(=O)[C@H](CO)NC(=O)[C@H](CO)NC(=O)[C@H](Cc1c[nH]cn1)NC(=O)[C@H](Cc1c[nH]cn1)NC(=O)[C@H](CC(C)C)NC(=O)[C@H](Cc1ccccc1)NC(=O)[C@H](CCC(=O)O)NC(=O)[C@H](C)NC(=O)[C@H](CC(C)C)NC(=O)[C@H](CCCNC(=N)N)NC(=O)[C@H](CCC(N)=O)NC(=O)[C@@H](NC(=O)[C@H](CCC(N)=O)NC(=O)[C@H](C)NC(=O)[C@@H](NC(=O)[C@H](CO)NC(=O)[C@H](CC(C)C)NC(=O)[C@H](Cc1c[nH]cn1)NC(=O)[C@H](CO)NC(=O)[C@H](C)NC(=O)CC[C@H](NC(=O)CCCCCCCCCCCCCCCCC(=O)O)C(=O)O)[C@@H](C)O)[C@@H](C)O)C(=O)N1CCC[C@H]1C(=O)N[C@@H](CO)C(=O)N[C@@H](CO)C(=O)N[C@H](C(=O)N[C@@H](CC(=O)O)C(=O)N[C@H](C(=O)NCC(=O)N1CCC[C@H]1C(=O)N[C@@H](CC(N)=O)C(=O)N[C@H](C(=O)N1CCC[C@H]1C(N)=O)[C@@H](C)O)C(C)C)[C@@H](C)O` [Compound 26, N^1-[(4S)-4-carboxy-4-(17-carboxyheptadecanoylamino)butanoyl]-[Ala1,Ser2,His3,Leu4,Ser5,Ala7,Gln8,Glu14,His17,Asp21,Pro22,Pro27,Asp31,Pro34,Pro37]-human amylin] ({C18 diacid-γGlu}-ASHLSTAQTQRLAEFLHHSSDPFGAIPSSTDVGPNTP-NH2), in that order: 11.66 and 11.88.

Values taken from US12116388B2, “Amylin receptor agonists” (Novo Nordisk A/S, priority 2022, dated 2024).
